Experimental data from patent US20150307532A1, “THIENOPYRIMIDINE INHIBITORS OF […] AND/OR […] PYROPHOSPHATE SYNTHASE” (THE ROYAL INSTITUTION FOR THE ADVANCEMENT OF …, priority 2012, published 2015).
Read-outs that look alike come from different tables or passages of the source.

What was measured:
human recombinant FPPS = target: T1, human recombinant FPPS (Homo sapiens, UniProt P14324)
T1 sequence (P14324 1-419): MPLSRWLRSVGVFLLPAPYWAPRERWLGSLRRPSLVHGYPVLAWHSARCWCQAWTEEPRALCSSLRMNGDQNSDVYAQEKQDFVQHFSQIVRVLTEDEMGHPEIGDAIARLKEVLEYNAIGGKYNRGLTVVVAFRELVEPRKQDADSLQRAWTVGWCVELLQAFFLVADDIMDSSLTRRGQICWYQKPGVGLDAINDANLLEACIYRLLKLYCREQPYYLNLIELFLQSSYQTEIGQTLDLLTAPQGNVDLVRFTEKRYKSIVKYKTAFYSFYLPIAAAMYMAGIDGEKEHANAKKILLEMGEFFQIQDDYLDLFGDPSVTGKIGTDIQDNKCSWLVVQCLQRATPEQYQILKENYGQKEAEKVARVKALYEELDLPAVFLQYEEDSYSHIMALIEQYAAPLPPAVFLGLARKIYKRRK
Experimental: In vitro Enzymatic Inhibition Assay for hFPPS: In vitro sensitized inhibition assay for hFPPS (M2):
For assays run with a 10 min pre-incubation period, the enzyme and inhibitor were incubated in the assay buffer in a volume of 80 μL at 37° C. for 10 min. After 10 min, the substrates were added to start the reaction and also bring the inhibitor and substrate to the desired final concentrations. After addition of all substrates, all assays were incubated at 37° C. for 8 min. Assays were terminated by the addition of 200 μL of HCl/methanol (1:4) and incubated for 10 min at 37° C. The assay mixture was then extracted with 700 μL of ligroin (in order to separate reaction products from unused substrate), dried through a plug of anhydrous MgSO4 and 300 μL of the ligroin phase was combined with 8 mL of scintillation cocktail. The radioactivity was then counted using a Beckman Coulter LS6500 liquid scintillation counter.

[1] = tested on: phosphorylated Tau protein; assay: Phospho-Tau bioassay (INNOTEST PHOSPHO-TAU(181P) ELISA) in human immortalized neurons; type: cell-based; details: compound 100 nM; for P-Tau: 24 hours, SH-SY5Y cell homogenate; for Ratio P/T: P-Tau/T-Tau
total Tau (T-Tau) = assay: Total Tau ELISA (Innotest Total Tau, hTau assay) in human immortalized neurons; type: cell-based; details: compound 100 nM, 24 hours, SH-SY5Y cell homogenate
Experimental: (§1) The commercially available INNOTEST® PHOSPHO-TAU(181P) solid-phase enzyme immunoassay was used. In this assay, the phosphorylated Tau protein or fragments are captured by a first monoclonal human specific antibody, HT7 (IgG1). Human immortalized neurons were treated with various compounds at […] and incubated with biotinylated AT270 (IgG1) monoclonal. This antigen-antibody complex is then detected by a peroxidase-labeled streptavidin. After addition of substrate working solution, samples develop a color. The color intensity is a measure for the amount of phosphorylated Tau protein in the sample. This assay has been standardized in numerous research laboratories (for examples see Vanderstichele, H. et al. Alzheimer's & Dementia 2012, 8, 65-73; Zimmermann, R. et al. Journal of Alzheimer's Diseases 2011, 25, 739-745; Blennow, K. et al. Molecular and Chemical Neuropathology 1995, 26, 231-245). Human neuroblastomas SH-SY5Y cell line were used and purchased at the ATCC under the label CRL2266. All compounds were tested in three fixed concentrations at 100 nM, 1 μM and 100 μM in duplicates. We used the 6 well culture plates to grown a significant density of neurons (330,000 cells/well). Cells were grown to 80% confluence in MEM-F12 media with 10% fetal bovine serum, the exposed for 24 hours to the different inhibitors. After one day, the supernatant was removed (and saved at −20° C.). The cell are washed repeatedly in PBS buffer and saved at −80° C. ELISA assays were performed on neuronal cell homogenates using a standardized assay developed by INNOGENETICS called Innotest Total Tau also refers to as the hTau assay and Innotest phospho-Tau (P181). Assays were performed as per manufacturer protocol. The concentration units are in pg of P-Tau per μg of total protein in the cell homogenate. […]; compounds which cause stress or damage to the neurons stimulate the production of P-Tau protein. Lactate dehydrogenase (LDH) activity was measured using a commercial kit; the maximum toxicity was based on % lactic acid dehydrogenases activity in the medium; the control was set at zero.

[2] = tested on: Human neuroblastomas SH-SY5Y cell line; assay: Lactate dehydrogenase (LDH) activity / toxicity in neurons; type: cell-based
Experimental: as §1

[3] = read-out: IC50 (μM) in hFPPS Method 2, ~1 nM hFPPS, 0.2 μM GPP and IPP

For `Cc1ccc(-c2cc3c(NC(P(=O)(O)O)P(=O)(O)O)ncnc3s2)cc1` [Example 5-1], the IC50 (human recombinant FPPS; [3]) was 0.022 µM.
Molecule `O=P(O)(O)C(Nc1ncnc2sc(-c3ccc(C(F)(F)F)cc3)cc12)P(=O)(O)O` [Example 6-1, (((6-(4-(trifluoromethyl)phenyl)thieno[2,3-d]pyrimidin-4-yl)amino)methylene)diphosphonic acid] has an IC50 (human recombinant FPPS; [3]) of 0.021 µM.
For `O=P(O)(O)C(Nc1ncnc2sc(-c3ccc(C4CC4)cc3)cc12)P(=O)(O)O` [Example 7-1, (((6-(4-cyclopropylphenyl)thieno[2,3-d]pyrimidin-4-yl)amino)methylene)diphosphonic acid], the IC50 (human recombinant FPPS) was 0.036 µM.
With `COc1ccc(-c2cc3c(NC(P(=O)(O)O)P(=O)(O)O)ncnc3s2)cc1` [Example 8-1, (((6-(4-methoxyphenyl)thieno[2,3-d]pyrimidin-4-yl)amino)methylene)diphosphonic acid] the IC50 (human recombinant FPPS; [3]) was 0.015 µM.
Work on `O=P(O)(O)C(Nc1ncnc2sc(-c3ccc4ccccc4c3)cc12)P(=O)(O)O` [Example 10-1] yielded an IC50 (human recombinant FPPS; [3]) of 0.063 µM.
`O=P(O)(O)C(Nc1ncnc2sc(-c3ccc(OC4CC4)cc3)cc12)P(=O)(O)O` [Example 11-1, (((6-(4-cyclopropoxyphenyl)thieno[2,3-d]pyrimidin-4-yl)amino)methylene)diphosphonic acid] was tested, and the P-Tau [1] was 0.30 pg of P-Tau per μg of total protein, the “Ratio P/T” value [1] was 0.007 and the T-Tau (total Tau (T-Tau)) was 31 pg/µg protein. For the same molecule, the LDH ([2]; human, 24 h, 100 nM) was 0%.
Work on `O=P(O)(O)C(Nc1ncnc2sc(-c3ccc(C4CC4(F)F)cc3)cc12)P(=O)(O)O` (stereo not drawn) [Example 13-1, (((6-(4-(2,2-difluorocyclopropyl)phenyl)thieno[2,3-d]pyrimidin-4-yl)amino)methylene)diphosphonic acid] yielded an IC50 (human recombinant FPPS; [3]) of 0.011 µM.
For `O=P(O)(O)CNc1ncnc2sc(-c3ccc(C4CC4)cc3)cc12` [Example 16-1, (((6-(4-cyclopropylphenyl)thieno[2,3-d]pyrimidin-4-yl)amino)methyl)phosphonic acid], the P-Tau [1] was 0.35 pg of P-Tau per μg of total protein, the “Ratio P/T” value [1] was 0.007 and the T-Tau (total Tau (T-Tau)) was 47 pg/µg protein. It also gave an LDH ([2]; human, 24 h, 100 nM) of 7% and an IC50 (human recombinant FPPS) of 29 µM.
Work on `Cc1ccc(-c2cc3c(NCP(=O)(O)O)ncnc3s2)cc1` [Example 18-1, (((6-(p-tolyl)thieno[2,3-d]pyrimidin-4-yl)amino)methyl)phosphonic acid] yielded an IC50 (human recombinant FPPS; [3]) of 4.5 µM.
Molecule `Cc1ccc(-c2sc3ncnc(NCP(=O)(O)O)c3c2N)cc1` [Example 21-1, (((5-amino-6-(p-tolyl)thieno[2,3-d]pyrimidin-4-yl)amino)methyl)phosphonic acid] has an IC50 (human recombinant FPPS) of 2.7 µM.
`Cc1ccc(-c2cc3c(N[C@H](Cc4ccccc4)C(=O)O)ncnc3s2)cc1` [Example 33-1] showed an IC50 (human recombinant FPPS) of 40 µM.
`Cc1ccc(-c2cc3c(NC(c4ccccc4)P(=O)(O)O)ncnc3s2)cc1` (stereo not drawn) [Example 36-1, (phenyl((6-(p-tolyl)thieno[2,3-d]pyrimidin-4-yl)amino)methyl)phosphonic acid] gave an IC50 (human recombinant FPPS) of 4.2 µM.
`Cc1ccc(-c2cc3c(NC(c4ccccc4)P(=O)(O)O)ncnc3s2)cc1Cl` (stereo not drawn) [Example 37-1, (((6-(3-chloro-4-methylphenyl)thieno[2,3-d]pyrimidin-4-yl)amino)(phenyl)methyl)phosphonic acid] showed an IC50 (human recombinant FPPS) of 1.3 µM.
In the case of `Cc1ccc(-c2sc3ncnc(NCP(=O)(O)O)c3c2N)cc1Cl` [Example 41-1], the IC50 (human recombinant FPPS) is reported as 10 µM.
In the case of `O=C(O)Cn1c(C(=O)O)cc2ccc3ccccc3c21` [Inhibitor 1], the P-Tau [1] is reported as 0.30 pg of P-Tau per μg of total protein, the T-Tau (total Tau (T-Tau)) is reported as 65 pg/µg protein and the LDH ([2]; human, 24 h, 100 nM) is reported as 3%.
In the case of `O=P(O)(O)C(O)(Cc1cccnc1)P(=O)(O)O` [Risedronic acid], the P-Tau [1] is reported as 0.17 pg of P-Tau per μg of total protein, the T-Tau (total Tau (T-Tau)) is reported as 38 pg/µg protein and the Toxicity ([2]; compound 100 nM, based on LDH) is reported as “high”. For the same molecule, the LDH ([2]; compound 100 nM, % lactic acid dehydrogenases activity in the medium, control set at zero) was 60% and the “toxicity to neurons” value ([2]; human immortalized neurons) was “highly toxic”.
`O=P(O)(O)C(O)(Cn1ccnc1)P(=O)(O)O` [Zoledronic acid] was tested, and the P-Tau [1] was 0.19 pg of P-Tau per μg of total protein, the T-Tau (total Tau (T-Tau)) was 34 pg/µg protein and the “toxicity to neurons” value [2] was “highly toxic”. It also gave an LDH ([2]; human, 24 h, 100 nM) of 60%.
